System: caspase-3
Experiment: Cleavage of caspase-3 in HT1080 cells
Format: cell-based, human
Settings: 2.5 μM
Protocol: A. Effect of irestatin 9389 on PERK and ATF6 pathways. HT1080 cells were treated with vehicle alone (lanes 1-4) or 2.5 μM irestatin 9389 (lanes 5-8) and cultured under aerobic conditions for 18 hours (N) or shifted to hypoxia for the indicated times. Protein lysates were analyzed by Western blot analysis using antisera specific for ATF6 (top), CHOP/GADD153 (middle) or actin (bottom). Arrow indicates the cleaved, transcriptionally active form of ATF6. B. Cleavage of caspase-3 in irestatin-treated cells under hypoxia. HT1080 cells were cultured in normoxia (N) or under hypoxia for 36 hours (H 36) in absence or presence of irestatin 9389 (2.5 μM). Arrows indicate proteolytically cleaved caspase-3. C. Colony formation assay. HT1080 cells were treated as in B under normoxia (N) or hypoxia for 48 hours (H 48). Cells were harvested, counted, and allowed to grow under normal culture conditions for 11-12 days. Colonies were visualized with crystal violet staining. D. Quantification of clonogenic survival assay. Values represent the mean+/−SEM from at least 4 independent experiments. E. TUNEL staining of cells treated as in C. F. Quantification of TUNEL-positive cells. Values represent the mean+/−SEM from at least 3 experiments. […] Cells were harvested at the indicated times and counted by hemocytometer. Values represent the mean calculated from triplicate experiments +/−SEM. […]

Cc1csc(NC(=O)CSc2nc3c(c(C(F)(F)F)c2C#N)CCC3)n1 [Compound 9389]
cleavage of caspase-3 under hypoxia (36 hours of hypoxia): stimulated cleavage of caspase-3 | caspase-3 processing under normal oxygen (normal oxygen conditions): no effect on caspase-3 processing

— US20090291857A1, “METHODS TO IDENTIFY INHIBITORS OF THE UNFOLDED PROTEIN RESPONSE” (THE BOARD OF TRUSTEES OF THE LELAND STANFORD JUNIOR …, priority 2006, published 2009)
